1 substance from patent US20250236838A1, “E. COLI NISSLE STRAIN WITH IMPROVED TRANSFORMATION EFFICIENCY” (priority 2024, published 2025) can be followed below.

“And” between values parts separate entries of the source, which are not always exact repeats. Identical values can stand only once.

The nature of the data set: Hydrophobicity, dodecane partitioning assay. Format: physicochemical, E. coli Nissle. How it is done: Hydrophobicity was measured using a standard partitioning assay. Fresh cultures of both strains were grown till log phase (OD600=0.7). The OD was found using Thermo Fischer's NanoDrop^C. The OD546 of the cell (OD1) was adjusted to 0.3 using 10 mM CaCO3 solution. 4 ml of the cell suspension was transferred to individual test tubes having 1 ml of dodecane and vortexed at 2500 rpm for 10 minutes to homogenize the phases. The phases were allowed to separate for 15 minutes. The OD546 of the aqueous phase (OD2) was measured.
The mean percentage of partitioning was calculated using triplicate samples. Partitioning of the bacteria suspension is calculated using Equation (3).

Turning to E. coli Nissle 1917 [Wild Type], the OD2 (OD546 of the aqueous phase after dodecane partitioning) is 0.14 and 0.17. For the same substance, the OD1 (OD546 of the cell suspension before partitioning) was 0.29 and 0.27. In addition, under “conclusion from phase partitioning”, the membrane hydrophobicity entry is reported as “hydrophilic”. For the same substance, the “Average Partitioning” value (mean of triplicate samples) was found to be 45.636%. In addition, the “Percentage of Partitioning” value (single samples of triplicate) was 51.724% and 37.037% and 48.148%.
